Where a name gives a salt, the structure may show the parent alone. Read-outs that look alike come from different tables or passages of the source. One block for each compound: values may come before it.
Tests used:
[1] = molecular target: IL-6R (Homo sapiens) (UniProt P08887); conditions: cited from earlier work
[2] = tested on: U2-OS; assay: cells; design: MTT metabolic activity assay, absorbance at 570 nm; conditions: Homo sapiens, U2OS, 48 h, single replicate
Protocol: (§1) A colorimetric MTT cell metabolic activity assay was used to determine the cytotoxicity of Bis-PMSs 5 and 6. For these experiments, the HF-P4, BJ-hTERT, BLM, A-2058, U-2 OS, H1299 and BT-20 cells were cultured under standard conditions (37 °C, humidified atmosphere with 5% CO2 in air) in culture medium (DMEM, RPMI-1640, McCoy’s or EMEM with 10% FBS). Cells were plated in 96-well plates at a density of 5000 cells per well and grown for 24 h. The medium was then replaced with a medium containing Bis-PMSs 5 and 6, and cells were cultured for an additional 48 h. Afterwards, the medium was exchanged for medium with the MTT yellow tetrazolium dye (3-(4,5-dimethylthiazol-2-yl)-2,5-diphenyltetrazolium bromide, Sigma-Aldrich) and incubated for 2 h at 37 °C. After that, the yellow tetrazole dye was removed and DMSO was used to dissolve the reduced purple formazan formed in living cells. The absorbance of the converted dye was measured at a wavelength of 570 nm with the reference of 630 nm using a SpectraMax ABS Plus microplate reader (Molecular Devices). Experiments were performed in quadruplicate and repeated three times with similar results. In U251MG and GL261 cells, an assay assessing cell growth independent of mitochondrial respiration was used. Cells were plated in 96-well plates at a density of 5000 cells per well and grown for 24 h under standard conditions in culture medium (DMEM and RPMI-1640 with 10% FBS for U251MG and Gl261 cells, respectively). The medium was then replaced by that supplemented with Bis-PMSs 5 and 6. After 72 h of exposure, surviving cells were fixed and stained with [compound left out] blue (5 g/L in 50%, v/v, ethanol) and lysed with 1% sodium dodecyl sulfate, and the relative cell number was determined by reading absorbance at 630 nm using a 96-well plate reader (Sunrise; Tecan, Männedorf, Switzerland). The cell inhibitory concentration (IC) was calculated using the equation IC = (APMS well/mean Acontrol wells) × 100%. The half-maximal inhibitory concentration (IC50) was calculated from dose–response curves using GraphPad Prism software (v. 8.0.1, La Jolla, CA, USA). The selectivity indexes towards cancer cells were calculated as a ratio of the average of the IC50 values for HF-P4 and BJ-hTERT human fibroblasts and the IC50 value for the corresponding cancer cell line. For U251MG and Gl261 glioblastoma cells, the cytoselectivity was calculated against normal HF P4 fibroblast cells, which were analyzed using the same cytotoxicity assay. The cytotoxic activities of Bis-PMSs 5 and 6 were evaluated in normal (HF-P4 and BJ-hTERT fibroblasts) and malignant (BLM, A-2058, U-2 OS, H1299, BT-20) cells using a conventional MTT viability assay. For the measurements, cells were exposed to 0–10 µM of Bis-PMSs 5 and 6 under standard conditions in a complete cell culture medium and cell viability was measured after 48 h of treatment. In addition, cytotoxicity was tested in U251MG and Gl261 glioma cells using an assay that assesses cell growth independent of mitochondrial respiration (Figures S10 and S11 and Table S3).

[3] = tested on: H1299; assay: cells; design: MTT metabolic activity assay, absorbance at 570 nm; conditions: Homo sapiens, NCI-H1299, 48 h, single replicate
Protocol: as §1

[4] = tested on: BLM; assay: cells; design: MTT metabolic activity assay, absorbance at 570 nm; conditions: 48 h, single replicate
Protocol: as §1

[5] = tested on: A2058; assay: cells; design: MTT metabolic activity assay, absorbance at 570 nm; conditions: Homo sapiens, A2058, 48 h, single replicate
Protocol: as §1

[6] = tested on: BT-20; assay: cells; design: MTT metabolic activity assay, absorbance at 570 nm; conditions: Homo sapiens, BT-20, 48 h, single replicate
Protocol: as §1

[7] = molecular target: T1, IL-6R (IL-6 receptor containing α and β subunits) (Homo sapiens, UniProt P08887+P40189); assay: microscale thermophoresis (T-jump); format: binding; conditions: read-out: dissociation constant
T1 construct: gene IL6R; commercial IL-6R (Bio-Techne R&D Systems), said to contain alpha and beta subunits
T1 sequence (P08887 20-365 limits assumed): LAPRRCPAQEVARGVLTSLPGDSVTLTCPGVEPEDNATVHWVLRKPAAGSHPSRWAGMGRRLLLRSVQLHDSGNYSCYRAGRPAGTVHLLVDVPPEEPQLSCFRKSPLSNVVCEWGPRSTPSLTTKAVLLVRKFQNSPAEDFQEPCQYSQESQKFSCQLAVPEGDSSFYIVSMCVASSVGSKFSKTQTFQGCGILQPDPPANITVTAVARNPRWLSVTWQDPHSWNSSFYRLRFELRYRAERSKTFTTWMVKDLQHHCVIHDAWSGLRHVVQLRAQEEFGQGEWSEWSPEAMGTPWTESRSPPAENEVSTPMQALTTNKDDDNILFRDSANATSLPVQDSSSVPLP
T1 sequence (P40189 23-619 limits assumed): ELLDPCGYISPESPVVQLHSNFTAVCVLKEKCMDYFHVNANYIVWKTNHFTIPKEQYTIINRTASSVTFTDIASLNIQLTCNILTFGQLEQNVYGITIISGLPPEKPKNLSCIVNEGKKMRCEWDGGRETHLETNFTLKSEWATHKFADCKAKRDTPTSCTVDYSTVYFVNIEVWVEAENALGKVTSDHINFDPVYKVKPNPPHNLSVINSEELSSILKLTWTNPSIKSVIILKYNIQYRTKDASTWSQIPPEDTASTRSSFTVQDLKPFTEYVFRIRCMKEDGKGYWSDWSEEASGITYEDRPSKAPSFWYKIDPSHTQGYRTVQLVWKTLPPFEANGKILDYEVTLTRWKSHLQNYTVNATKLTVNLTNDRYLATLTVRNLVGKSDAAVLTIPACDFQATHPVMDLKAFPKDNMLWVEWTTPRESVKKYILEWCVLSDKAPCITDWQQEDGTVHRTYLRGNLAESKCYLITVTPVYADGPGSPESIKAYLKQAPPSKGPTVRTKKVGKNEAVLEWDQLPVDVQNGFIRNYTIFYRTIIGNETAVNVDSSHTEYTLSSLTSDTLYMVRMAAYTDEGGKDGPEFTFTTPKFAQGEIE

[8] = tested on: U251; assay: cells; design: Cell growth by dye staining of fixed cells, absorbance at 630 nm, independent of mitochondrial respiration; conditions: Homo sapiens, U-251, 72 h, single replicate
Protocol: as §1

[9] = tested on: Gl261; assay: cells; design: Cell growth by dye staining of fixed cells, absorbance at 630 nm, independent of mitochondrial respiration; conditions: Mus musculus, GL261, 72 h, single replicate
Protocol: as §1

[10] = in vitro; design: MTT metabolic activity assay, absorbance at 570 nm; conditions: human, single replicate
Protocol: as §1

[11] = tested on: HFP4; assay: in vitro; design: MTT metabolic activity assay, absorbance at 570 nm; conditions: single replicate, 48 h
Protocol: as §1

[12] = tested on: BJ-hTERT; assay: in vitro; design: MTT metabolic activity assay, absorbance at 570 nm; conditions: single replicate, 48 h
Protocol: as §1

[13] = replicate 1, read-out: Bis-PMS 6 (IC50 / µM)
[14] = replicate 2, read-out: Bis-PMS 6 (IC50 / µM)
[15] = replicate 3, read-out: Bis-PMS 6 (IC50 / µM)
[16] = replicate 1, read-out: Bis-PMS 5 (IC50 / µM)
[17] = replicate 2, read-out: Bis-PMS 5 (IC50 / µM)
[18] = replicate 3, read-out: Bis-PMS 5 (IC50 / µM)

Compound: tocilizumab
Kd [1]: 2.54 nM

IC50 [2, 13]: 0.257 µM | IC50 [2, 14]: 0.347 µM | IC50 [2, 15]: 0.123 µM | IC50 [3, 14]: 0.199 µM | IC50 [3, 15]: 0.138 µM | IC50 [6, 13]: 0.724 µM | IC50 [6, 14]: 0.617 µM | IC50 [6, 15]: 0.997 µM | Kd [7]: 304 ± 27.6 nM | IC50 [8, 13]: 0.485 µM | IC50 [8, 14]: 0.526 µM
Compound: CN1C(=CC=C(C=CC2=[N+](C)c3ccccc3C2(C)C)c2cccc(C(C=CC3=[N+](C)c4ccccc4C3(C)C)=CC=C3N(C)c4ccccc4C3(C)C)c2)C(C)(C)c2ccccc21 [compound 6, m-bis-pentamethinium salt 6]
IC50 [4, 13]: 0.933 µM | IC50 [4, 15]: 1.91 µM | IC50 [5, 13]: 0.191 µM | IC50 [5, 14]: 1.07 µM | IC50 [5, 15]: 0.646 µM | IC50 [9, 13]: 0.218 µM | IC50 [9, 14]: 0.319 µM | CC50 at 48 h ([10]; hf-p4 cells, Bis-PMS 6 (IC50 / µM), replicate 1): 1.05 µM | CC50 [11, 15]: 1.95 µM | CC50 [12, 14]: 1.66 µM | CC50 [12, 15]: 0.776 µM

IC50 [2, 16]: 0.562 µM | IC50 [2, 17]: 0.631 µM | IC50 [2, 18]: 0.295 µM | IC50 [3, 16]: 2.69 µM | IC50 [3, 17]: 2.82 µM | IC50 [6, 16]: 0.832 µM | IC50 [6, 17]: 0.38 µM | IC50 [6, 18]: 0.891 µM | Kd [7]: 26.5 ± 2.5 nM | IC50 [8, 16]: 0.501 µM | IC50 [8, 17]: 0.938 µM
Compound: CN1C(=CC=C(C=CC2=[N+](C)c3ccccc3C2(C)C)c2ccc(C(C=CC3=[N+](C)c4ccccc4C3(C)C)=CC=C3N(C)c4ccccc4C3(C)C)cc2)C(C)(C)c2ccccc21 [compound 5, p-bis-pentamethinium salt 5]
IC50 [4, 16]: 0.417 µM | IC50 [4, 18]: 0.183 µM | IC50 [5, 17]: 0.396 µM | IC50 [5, 18]: 0.178 µM | IC50 [9, 16]: 0.9 µM | IC50 [9, 17]: 1.04 µM | CC50 at 48 h ([10]; bj-htert cells, Bis-PMS 5 (IC50 / µM), replicate 2): 1.7 µM | CC50 [11, 16]: 1.78 µM | CC50 [11, 17]: 0.427 µM | CC50 [11, 18]: 0.757 µM | CC50 [12, 18]: 1.62 µM

From publication PMC9416741, “New-Generation Heterocyclic Bis-Pentamethinium Salts as Potential Cytostatic Drugs with Dual IL-6R and Mitochondria-Targeting Activity” (Pharmaceutics, 2022)
